# Measured values: PubChem BioAssay AID256 (DTP/NCI, 2004)
# Where “and” joins values, the source holds several entries; their conditions need not be identical. Identical values can stand only once. Inconclusive results and toxic doses are left out.
# Tested on: CD2F1 mice, L1210 leukemia ip, survival T/C
# Assay: NCI In Vivo Anticancer Drug Screen. Data for tumor model L1210 Leukemia (intraperitoneal) in CD2F1 (CDF1) mice
# Settings: higher = longer survival
# Method in brief: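 Mice carrying a transplanted tumor received test compound or vehicle alone. The value is the measurement in the treated group divided by that in the vehicle-treated control group.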
# [1] = endpoint: mean survival time, dose: 50.0 mg/kg/injection, schedule: Q01DX009 (ip), vehicle: saline with Tween-80
# [2] = endpoint: mean survival time, dose: 100.0 mg/kg/injection, schedule: Q01DX009 (ip), vehicle: saline with Tween-80
# [3] = endpoint: mean survival time, dose: 100.0 mg/kg/injection, schedule: Q04DX003 (ip), vehicle: saline with Tween-80
# [4] = endpoint: mean survival time, dose: 200.0 mg/kg/injection, schedule: Q04DX003 (ip), vehicle: saline with Tween-80
# [5] = endpoint: mean survival time, dose: 400.0 mg/kg/injection, schedule: Q04DX003 (ip), vehicle: saline with Tween-80
# [6] = endpoint: mean survival time, dose: 12.5 mg/kg/injection, schedule: Q01DX009 (ip), vehicle: water
structure (smiles),measurement,setting,value
O=C1O/C(=C\c2ccccc2)c2c(Br)c(Br)c(Br)c(Br)c21,T/C,"endpoint: mean survival time, dose: 37.5 mg/kg/injection, schedule: Q01DX009 (ip), vehicle: saline",96 % of control
same,T/C,"endpoint: mean survival time, dose: 75.0 mg/kg/injection, schedule: Q01DX009 (ip), vehicle: saline",96 % of control
same,T/C,"endpoint: mean survival time, dose: 150.0 mg/kg/injection, schedule: Q01DX009 (ip), vehicle: saline",98 % of control
same,T/C,"endpoint: mean survival time, dose: 300.0 mg/kg/injection, schedule: Q01DX009 (ip), vehicle: saline",100 % of control
O=NN(CCCl)C(=O)NC1CCC(=O)NC1=O (stereo not drawn),T/C,"endpoint: median survival time, dose: 15.0 mg/kg/injection, schedule: Q01DX001 (ip), vehicle: saline with Tween-80",344 % of control
same,T/C,"endpoint: median survival time, dose: 20.0 mg/kg/injection, schedule: Q01DX001 (ip), vehicle: saline with Tween-80",344 % of control
same,T/C,"endpoint: median survival time, dose: 25.0 mg/kg/injection, schedule: Q01DX001 (ip), vehicle: saline with Tween-80",344 % of control
same,T/C,"endpoint: median survival time, dose: 30.0 mg/kg/injection, schedule: Q01DX001 (ip), vehicle: saline with Tween-80",344 % of control
C=C(C)C(=NC(C)(C)C)Nc1ccccc1,T/C,"endpoint: median survival time, dose: 6.25 mg/kg/injection, schedule: Q01DX009 (ip), vehicle: saline with Tween-80",105 % of control
same,T/C,"endpoint: median survival time, dose: 12.5 mg/kg/injection, schedule: Q01DX009 (ip), vehicle: saline with Tween-80",110 % of control
same,T/C,"endpoint: median survival time, dose: 25.0 mg/kg/injection, schedule: Q01DX009 (ip), vehicle: saline with Tween-80",108 % of control
same,T/C,"endpoint: median survival time, dose: 50.0 mg/kg/injection, schedule: Q01DX009 (ip), vehicle: saline with Tween-80",108 % of control
same,T/C,"endpoint: median survival time, dose: 100.0 mg/kg/injection, schedule: Q01DX009 (ip), vehicle: saline with Tween-80",112 % of control
same,T/C,"endpoint: median survival time, dose: 200.0 mg/kg/injection, schedule: Q01DX009 (ip), vehicle: saline with Tween-80",121 % of control
C/C=C/C=C/c1cc2cc3c(c(O)c2c(=O)[nH]1)C1(CC3)C(O)=c2c(=O)c3c(=O)cc(OC)c(=O)c=3c(=O)c2=C1O (stereo not drawn),T/C,"endpoint: mean survival time, dose: 0.06 mg/kg/injection, schedule: Q01DX009 (ip), vehicle: DMSO",90 % of control and 93 % of control and 108 % of control
same,T/C,"endpoint: mean survival time, dose: 0.06 mg/kg/injection, schedule: Q01DX009 (ip), vehicle: Klucel (hydroxypropylcellulose) (HPC)",97 % of control
same,T/C,"endpoint: mean survival time, dose: 0.12 mg/kg/injection, schedule: Q01DX009 (ip), vehicle: DMSO",113 % of control and 107 % of control
same,T/C,"endpoint: mean survival time, dose: 0.12 mg/kg/injection, schedule: Q01DX009 (ip), vehicle: Klucel (hydroxypropylcellulose) (HPC)",98 % of control
same,T/C,"endpoint: mean survival time, dose: 0.25 mg/kg/injection, schedule: Q01DX009 (ip), vehicle: DMSO",118 % of control
same,T/C,"endpoint: mean survival time, dose: 0.25 mg/kg/injection, schedule: Q01DX009 (ip), vehicle: Klucel (hydroxypropylcellulose) (HPC)",98 % of control
same,T/C,"endpoint: mean survival time, dose: 0.5 mg/kg/injection, schedule: Q01DX009 (ip), vehicle: DMSO",94 % of control
same,T/C,"endpoint: mean survival time, dose: 0.5 mg/kg/injection, schedule: Q01DX009 (ip), vehicle: Klucel (hydroxypropylcellulose) (HPC)",98 % of control
same,T/C,"endpoint: mean survival time, dose: 1.0 mg/kg/injection, schedule: Q01DX009 (ip), vehicle: Klucel (hydroxypropylcellulose) (HPC)",98 % of control
same,T/C,"endpoint: mean survival time, dose: 2.0 mg/kg/injection, schedule: Q01DX009 (ip), vehicle: Klucel (hydroxypropylcellulose) (HPC)",104 % of control
same,T/C,"endpoint: median survival time, dose: 0.03 mg/kg/injection, schedule: Q01DX009 (ip), vehicle: DMSO",89 % of control
CCCCC(Sc1nn(C2OC(COC(=O)c3ccccc3)C(OC(=O)c3ccccc3)C2OC(=O)c2ccccc2)c(=O)[nH]c1=O)C(=O)OCC (stereo not drawn),T/C,"endpoint: mean survival time, dose: 12.5 mg/kg/injection, schedule: Q01DX005 (ip), vehicle: distilled water + Tween-80",101 % of control
same,T/C,"endpoint: mean survival time, dose: 25.0 mg/kg/injection, schedule: Q01DX005 (ip), vehicle: distilled water + Tween-80",95 % of control
same,T/C,"endpoint: mean survival time, dose: 50.0 mg/kg/injection, schedule: Q01DX005 (ip), vehicle: distilled water + Tween-80",97 % of control
same,T/C,"endpoint: mean survival time, dose: 100.0 mg/kg/injection, schedule: Q01DX005 (ip), vehicle: distilled water + Tween-80",95 % of control
same,T/C,"endpoint: mean survival time, dose: 200.0 mg/kg/injection, schedule: Q01DX005 (ip), vehicle: distilled water + Tween-80",94 % of control
CCCCCCC(=O)/C=C/c1cccc(Cl)c1,T/C,"endpoint: mean survival time, dose: 100.0 mg/kg/injection, schedule: Q04DX003 (ip), vehicle: Klucel (hydroxypropylcellulose) (HPC)",104 % of control
same,T/C,"endpoint: mean survival time, dose: 200.0 mg/kg/injection, schedule: Q04DX003 (ip), vehicle: Klucel (hydroxypropylcellulose) (HPC)",102 % of control
same,T/C,"endpoint: mean survival time, dose: 400.0 mg/kg/injection, schedule: Q04DX003 (ip), vehicle: Klucel (hydroxypropylcellulose) (HPC)",91 % of control
CC(O)Cc1c(Cc2ccccc2)nc(-c2ccccc2)[nH]c1=O (stereo not drawn),T/C,[1],91 % of control
same,T/C,[2],90 % of control
same,T/C,[3],95 % of control
same,T/C,[4],90 % of control
same,T/C,[5],88 % of control
Nc1ncnc2c1c1c(=O)[nH]nnc1n2C1OC(CO)C(O)C1O (stereo not drawn),T/C,"endpoint: mean survival time, dose: 3.13 mg/kg/injection, schedule: Q01DX005 (ip), vehicle: water",101 % of control
same,T/C,"endpoint: mean survival time, dose: 6.25 mg/kg/injection, schedule: Q01DX005 (ip), vehicle: water",103 % of control
same,T/C,"endpoint: mean survival time, dose: 12.5 mg/kg/injection, schedule: Q01DX005 (ip), vehicle: water",92 % of control
same,T/C,"endpoint: mean survival time, dose: 12.5 mg/kg/injection, schedule: Q01DX009 (ip), vehicle: distilled water + Tween-80",113 % of control
same,T/C,"endpoint: mean survival time, dose: 25.0 mg/kg/injection, schedule: Q01DX005 (ip), vehicle: water",107 % of control
same,T/C,"endpoint: mean survival time, dose: 25.0 mg/kg/injection, schedule: Q01DX009 (ip), vehicle: distilled water + Tween-80",122 % of control
same,T/C,"endpoint: mean survival time, dose: 50.0 mg/kg/injection, schedule: Q01DX005 (ip), vehicle: water",105 % of control
same,T/C,"endpoint: mean survival time, dose: 50.0 mg/kg/injection, schedule: Q01DX009 (ip), vehicle: distilled water + Tween-80",122 % of control
same,T/C,"endpoint: mean survival time, dose: 100.0 mg/kg/injection, schedule: Q01DX005 (ip), vehicle: water",107 % of control
NC(N)=N/N=C\c1c2ccccc2cc2ccccc12,T/C,"endpoint: mean survival time, dose: 0.78 mg/kg/injection, schedule: Q01DX009 (ip), vehicle: water",100 % of control
same,T/C,"endpoint: mean survival time, dose: 1.56 mg/kg/injection, schedule: Q01DX009 (ip), vehicle: other",101 % of control
same,T/C,"endpoint: mean survival time, dose: 1.56 mg/kg/injection, schedule: Q01DX009 (ip), vehicle: water",101 % of control
same,T/C,"endpoint: mean survival time, dose: 3.13 mg/kg/injection, schedule: Q01DX009 (ip), vehicle: other",100 % of control
same,T/C,"endpoint: mean survival time, dose: 3.13 mg/kg/injection, schedule: Q01DX009 (ip), vehicle: water",116 % of control
same,T/C,"endpoint: mean survival time, dose: 6.25 mg/kg/injection, schedule: Q01DX009 (ip), vehicle: other",106 % of control
same,T/C,"endpoint: mean survival time, dose: 12.5 mg/kg/injection, schedule: Q01DX009 (ip), vehicle: other",106 % of control
same,T/C,[6],105 % of control
same,T/C,"endpoint: mean survival time, dose: 25.0 mg/kg/injection, schedule: Q01DX009 (ip), vehicle: other",111 % of control
CC1=CC(=O)CC(C)C2CC(C(C)C)CC12 (stereo not drawn),T/C,"endpoint: mean survival time, dose: 100.0 mg/kg/injection, schedule: Q01DX001 (ip), vehicle: saline",101 % of control
same,T/C,"endpoint: mean survival time, dose: 200.0 mg/kg/injection, schedule: Q01DX001 (ip), vehicle: saline",100 % of control
same,T/C,"endpoint: mean survival time, dose: 400.0 mg/kg/injection, schedule: Q01DX001 (ip), vehicle: saline",105 % of control
O=C1N=C(Oc2ccccc2)SC1=O,T/C,"endpoint: mean survival time, dose: 12.5 mg/kg/injection, schedule: Q01DX009 (ip), vehicle: saline with Tween-80",95 % of control and 104 % of control
same,T/C,"endpoint: mean survival time, dose: 25.0 mg/kg/injection, schedule: Q01DX009 (ip), vehicle: saline with Tween-80",116 % of control and 101 % of control
same,T/C,[1],103 % of control and 106 % of control
same,T/C,[2],97 % of control and 101 % of control
same,T/C,"endpoint: mean survival time, dose: 200.0 mg/kg/injection, schedule: Q01DX009 (ip), vehicle: saline with Tween-80",90 % of control
CC1=NN(c2ccccc2)C(=O)CC1,T/C,[3],101 % of control
same,T/C,[4],101 % of control
same,T/C,[5],103 % of control
Cc1ccc2nc(-c3ccccc3N)[nH]c2c1,T/C,[3],87 % of control
same,T/C,[4],92 % of control
same,T/C,[5],89 % of control
BrC(Br)(c1ccccc1)C1OCCO1,T/C,"endpoint: mean survival time, dose: 50.0 mg/kg/injection, schedule: Q01DX001 (ip), vehicle: saline with Tween-80",107 % of control
same,T/C,"endpoint: mean survival time, dose: 50.0 mg/kg/injection, schedule: Q04DX003 (ip), vehicle: saline with Tween-80",100 % of control
same,T/C,"endpoint: mean survival time, dose: 100.0 mg/kg/injection, schedule: Q01DX001 (ip), vehicle: saline with Tween-80",100 % of control
same,T/C,[3],101 % of control
same,T/C,"endpoint: mean survival time, dose: 200.0 mg/kg/injection, schedule: Q01DX001 (ip), vehicle: saline with Tween-80",102 % of control
same,T/C,[4],97 % of control
CNNCc1ccc(/C=N/NC(N)=S)cc1,T/C,"endpoint: mean survival time, dose: 6.25 mg/kg/injection, schedule: Q01DX009 (ip), vehicle: water",96 % of control
same,T/C,[6],98 % of control
same,T/C,"endpoint: mean survival time, dose: 25.0 mg/kg/injection, schedule: Q01DX009 (ip), vehicle: water",100 % of control
same,T/C,"endpoint: mean survival time, dose: 50.0 mg/kg/injection, schedule: Q01DX009 (ip), vehicle: water",86 % of control and 96 % of control
same,T/C,"endpoint: mean survival time, dose: 100.0 mg/kg/injection, schedule: Q01DX009 (ip), vehicle: water",86 % of control and 96 % of control
Nc1nc(N)c2nc(CSc3ccc(C(=O)NC(CCC(=O)O)C(=O)O)cc3)ccc2n1 (stereo not drawn),T/C,"endpoint: mean survival time, dose: 0.5 mg/kg/injection, schedule: Q01DX005 (ip), vehicle: sodium bicarbonate",121 % of control
same,T/C,"endpoint: mean survival time, dose: 2.0 mg/kg/injection, schedule: Q01DX005 (ip), vehicle: sodium bicarbonate",154 % of control
